The values below come from patent publication US20040220204A1, “Pharmaceutical composition comprising a tricyclic compound for the prevention or treatment of skin diseases” (priority 2001, published 2004).

The data set is described as follows: stabilization of FK506 dissolved in lower alkanediols. In kind it is physicochemical. Conditions: such as ethylene glycol, propylene glycol, butylene glycol. The procedure:
It was also confirmed that carboxybinyl polymer could make FK506 stable, when FK506 was dissolved in lower alkanediols, such as ethylene glycol, propylene glycol, butylene glycol, etc. And, it was further confirmed that a combination of hydroxypropyl cellulose and ascorbyl palmitate could also make FK506 stable, when FK506 was dissolved in lower alkanediols, such as ethylene glycol, propylene glycol, butylene glycol, etc.

Take `C=CC[C@@H]1/C=C(\C)C[C@H](C)C[C@H](OC)[C@H]2O[C@@](O)(C(=O)C(=O)N3CCCC[C@H]3C(=O)O[C@H](/C(C)=C/[C@@H]3CC[C@@H](O)[C@H](OC)C3)[C@H](C)[C@@H](O)CC1=O)[C@H](C)C[C@@H]2OC` [FK506, 17-allyl-1,14-dihydroxy-12-[2-(4-hydroxy-3-methoxycyclohexyl)-1-methylvinyl]-23,25-dimethoxy-13,19,21,27-tetramethyl-11,28-dioxa-4-azatricyclo[22.3.1.0^4,9]octacos-18-ene-2,3,10,16-tetraone]: the “stability of FK506 with carboxybinyl polymer” value (carboxybinyl polymer added) is given as “stable”. Where the note is “hydroxypropyl cellulose and ascorbyl palmitate added”, the “stability of FK506 with a combination of hydroxypropyl cellulose and ascorbyl palmitate” value was “stable”.
